Values quoted from earlier work in patent US9598354B2, “Fumarate compounds, pharmaceutical compositions thereof, and methods of use” (priority 2015, dated 2017).

COC(=O)/C=C/C(=O)OC [DMF, dimethylfumarate]
aqueous solubility: poor
